Reference: patent US20250101052A1, “COMPOUND FOR EGFR KINASE INHIBITOR, COMPOSITION, AND USE THEREOF” (INNOVATION INSTITUTE FOR ARTIFICIAL INTELLIGENCE IN …, priority 2021, published 2025)

Molecular target: EGFR^L858R/T790M/C797S kinase (Homo sapiens (Human), UniProt P00533, C797S/L858R/T790M)
Experiment: EGFR^L858R/T790M/C797S kinase inhibitory activity experiment
Format: biochemical
Settings: in vitro
Description: EGFRL^858R/T790M/C797S kinase inhibitory activity experiment: The compounds of the present invention have excellent in-vitro inhibitory activity against EGFR^L858R/T790M/C797S kinase
• Centrifuge (manufacturer: Eppendorf, model: 5430) • Microplate reader (manufacturer: Perkin Elmer, model: Caliper EZ ReaderII) • Echo 550 (manufacturer: Labcyte, model: Echo 550) • Experimental Method • Compound preparation: • A 10 mM storage solution was prepared.
(1) 1×Kinase buffer was prepared.
(2) Preparation of concentration gradient of compound: The tested compound has a test concentration starting from 1 μM, diluted 10 times, with 10 concentrations, and subjected to single-well or multi-well detection. The compound was diluted to a 100% DMSO solution with a final concentration of 100 times in a 384 source plate. […] of the compound at a final concentration of 100 times was transferred to the target plate 384-well-plate using the pipette Echo 550.
(3) A kinase solution with a final concentration of 2.5 times was prepared using 1× Kinase buffer.
(4) 10 μL of the kinase solution with the final concentration of 2.5 times was added to a compound well and a positive control well, respectively; 10 μL of 1×Kinase buffer was added to a negative control well.
(5) Centrifugation was conducted at 1000 rpm for 30 seconds, and the reaction plate was shaken and mixed well, and incubated at a room temperature for 10 minutes.
(6) A mixed solution of ATP with a final concentration of 5/3 times and Kinase substrate 22 was prepared using 1×Kinase buffer.
(7) A mixed solution of 15 μL of ATP with a final concentration of 5/3 times and a substrate was added for initial reaction.
(8) The 384-well-plate was centrifuged at 1000 rpm for 30 seconds, shaken and mixed well, and incubated at a room temperature for 60 minutes.
(9) 30 μL of a termination detection solution was added to stop the kinase reaction. Centrifugation was conducted at 1000 rpm for 30 seconds. Shaking and mixing well were conducted.
(10) The conversion rate was read using Caliper EZ Reader.
where Conversion %_sample is the conversion rate reading of the sample; Conversion %_min: the average value of negative control wells, representing the conversion rate reading of wells without enzyme activity; Conversion %_max: the average value of positive control wells, representing the conversion rate reading of wells without compound inhibition; % Inhibition represents the inhibition rate.
Fitting of Dose-Response Curve
Using the log value of concentration as the X-axis and the percentage inhibition rate as the Y-axis, the dose-response curve was fitted using the log(inhibitor) vs. response —Variable slope of the analysis software GraphPad Prism 5 to obtain the IC50 value of each compound on enzyme activity.

Sequence of EGFR^L858R/T790M/C797S kinase (P00533 25-1210 T790M/C797S/L858R): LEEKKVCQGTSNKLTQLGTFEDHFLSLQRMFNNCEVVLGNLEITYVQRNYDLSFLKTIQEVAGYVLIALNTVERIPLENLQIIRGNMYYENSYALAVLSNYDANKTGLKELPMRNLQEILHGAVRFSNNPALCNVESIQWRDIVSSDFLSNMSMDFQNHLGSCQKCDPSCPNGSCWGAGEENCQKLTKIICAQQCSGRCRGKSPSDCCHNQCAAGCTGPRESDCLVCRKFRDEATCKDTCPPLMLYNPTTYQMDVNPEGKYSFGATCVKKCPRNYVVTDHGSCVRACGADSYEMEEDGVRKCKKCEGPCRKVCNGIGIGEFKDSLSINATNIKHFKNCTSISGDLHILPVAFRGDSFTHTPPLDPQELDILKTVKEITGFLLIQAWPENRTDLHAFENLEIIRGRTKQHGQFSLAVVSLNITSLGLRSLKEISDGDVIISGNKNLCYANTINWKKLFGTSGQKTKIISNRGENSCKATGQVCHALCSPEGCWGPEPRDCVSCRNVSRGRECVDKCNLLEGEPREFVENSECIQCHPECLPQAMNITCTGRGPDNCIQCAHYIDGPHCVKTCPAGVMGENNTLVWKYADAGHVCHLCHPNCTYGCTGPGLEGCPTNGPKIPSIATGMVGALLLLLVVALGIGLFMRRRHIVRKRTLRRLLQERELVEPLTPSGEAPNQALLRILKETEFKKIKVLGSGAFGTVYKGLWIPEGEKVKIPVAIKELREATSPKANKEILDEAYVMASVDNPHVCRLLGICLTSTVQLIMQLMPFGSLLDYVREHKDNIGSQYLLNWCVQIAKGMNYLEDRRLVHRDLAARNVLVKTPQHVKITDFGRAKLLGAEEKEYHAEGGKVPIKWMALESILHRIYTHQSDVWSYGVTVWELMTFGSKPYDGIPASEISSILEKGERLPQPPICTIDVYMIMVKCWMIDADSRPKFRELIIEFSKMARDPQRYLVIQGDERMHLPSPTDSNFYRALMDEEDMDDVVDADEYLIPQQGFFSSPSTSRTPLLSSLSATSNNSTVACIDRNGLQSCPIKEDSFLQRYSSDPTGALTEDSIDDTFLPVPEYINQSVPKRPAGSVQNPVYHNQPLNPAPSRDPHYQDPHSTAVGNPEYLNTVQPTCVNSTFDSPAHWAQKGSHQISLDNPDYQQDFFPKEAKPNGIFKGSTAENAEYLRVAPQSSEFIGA

SMILES | IC50 [nM]
CCc1cc(Nc2ncc(Cl)c(Nc3cc(C)c(C)cc3P(C)(C)=O)n2)c(OC)cc1N1CC2(CCN(CC(F)F)CC2)C1 [Compound 45] | 0.74
CCc1cc(Nc2ncc(Cl)c(Nc3cc(C)c(C)cc3P(C)(C)=O)n2)c(OC)cc1N1CC2(CCC(N(C)C)CC2)C1 [Compound 10, (2-((5-Chloro-2-((4-(7-(dimethylamino)-2-azaspiro[3.5]nonan-2-yl)-5-ethyl-2-methoxypheny 1)amino)pyrimidin-4-yl)amino)-4,5-dimethylphenyl)dimethylphosphine oxide] | 13
CCc1cc(Nc2ncc(Cl)c(Nc3cc(C)cc(C)c3P(C)(C)=O)n2)c(OC)cc1N1CCC2(CC1)CC(N(C)C)C2 [Compound 18, (2-((5-Chloro-2-((4-(2-(dimethylamino)-7-azaspiro[3.5]non-7-yl)-5-ethyl-2-methoxyphenyl)amino)pyrimidin-4-yl)amino)-4,6-dimethylphenyl)dimethylphosphine oxide] | 36
COc1cc(N2CC3(CCC(CC#N)CC3)C2)c(Cl)cc1Nc1ncc(Cl)c(Nc2cc(C)c(C)cc2P(C)(C)=O)n1 [Compound 43, 2-(2-(2-chloro-4-((5-chloro-4-((2-(dimethylphosphoryl)-4,5-dimethylphenyl)amino)pyrimidin-2-yl)amino)-5-methoxyphenyl)-2-azaspiro[3.5]nonan-7-yl)acetonitrile] | 25.2
CCc1cc(Nc2ncc(Cl)c(Nc3cc(C)c(C)cc3P(C)(C)=O)n2)c(OC)cc1N1CCC2(CC1)CN(C)C2 [Compound 20, (2-((5-Chloro-2-((5-ethyl-2-methoxy-4-(2-methyl-2,7-diazaspiro[3.5]non-7-yl)phenyl)amino)pyrimidin-4-yl)amino)-4,5-dimethylphenyl)dimethylphosphine oxide] | 29
CCc1cc(Nc2ncc(Cl)c(Nc3cc(C)c(C)cc3P(C)(C)=O)n2)c(OC)cc1N1CCC(N2CCOCC2)CC1 [Compound 14, (2-((5-chloro-2-((5-ethyl-2-methoxy-4-(4-morpholinopiperidin-1-yl)phenyl)amino)pyrimidin-4-yl)amino)-4,5-dimethylphenyl)dimethylphosphine oxide] | 8.3
CCc1cc(Nc2ncc(Cl)c(Nc3ccc(C)c(C)c3P(C)(C)=O)n2)c(OC)cc1N1CC2(CCN(CC(F)F)CC2)C1 [Compound 28] | 0.99
CCc1cc(Nc2ncc(Cl)c(Nc3cc(Cl)c(Cl)cc3P(C)(C)=O)n2)c(OC)cc1N1CC2(CCC(CC#N)CC2)C1 [Compound 39, 2-(2-(4-((5-chloro-4-((4,5-dichloro-2-(dimethylphosphoryl)phenyl)amino)pyrimidin-2-yl)amino)-2-ethyl-5-methoxyphenyl)-2-azaspiro[3.5]nonan-7-yl)acetonitrile] | 12.1
COc1cc(N2CCC3(CCN(C)CC3)CC2)ccc1Nc1ncc(Cl)c(Nc2ccc(C)c(C)c2P(C)(C)=O)n1 [Compound 4, (6-((5-Chloro-2-((2-methoxy-4-(9-methyl-3,9-diazaspiro[5.5]undecan-3-yl)phenyl)amino)pyrimidin-4-yl)amino)-2,3-dimethylphenyl)dimethylphosphine oxide] | 16
COc1cc(N2CCC3(CC2)CC(N(C)C)C3)ccc1Nc1ncc(Cl)c(Nc2cc(C)c(C)cc2P(C)(C)=O)n1 [Compound 1, (6-((5-Chloro-2-((4-(2-(dimethylamino)-7-azaspiro[3.5]nonan-7-yl)-2-methoxyphenyl)amino)pyrimidin-4-yl)amino)-3,4-dimethylphenyl)dimethylphosphine oxide] | 27
COc1cc(N2CCC3(CC2)CC(N(C)C)C3)c(F)cc1Nc1ncc(Cl)c(Nc2ccc(C)c(C)c2P(C)(C)=O)n1 [Compound 22] | 10
CCc1cc(Nc2ncc(Cl)c(Nc3ccc(C)c(C)c3P(C)(C)=O)n2)c(OC)cc1N1CCC(N2CC3CC(C2)N3C)CC1 [Compound 53, (6-((5-Chloro-2-((5-ethyl-2-methoxy-4-(4-(6-methyl-3,6-diazadicyclo[3.1.1]heptane-3-yl)piperidin-1-yl)phenyl)amino)pyrimidin-4-yl)amino)-2,3-dimethylphenyl)dimethylphosphine oxide] | 0.269
COc1cc(N2CC3(CCN(CC(F)F)CC3)C2)c(Cl)cc1Nc1ncc(Cl)c(Nc2cc(C)c(C)cc2P(C)(C)=O)n1 [Compound 42] | 0.76
CCc1cc(Nc2ncc(Cl)c(Nc3cc(Cl)c(Cl)cc3P(C)(C)=O)n2)c(OC)cc1N1CC2(CCN(CC(F)F)CC2)C1 [Compound 38] | 0.59
COc1cc(N2CC3(CCC(N(C)C)CC3)C2)c(C)cc1Nc1ncc(Cl)c(Nc2ccc(C)c(C)c2P(C)(C)=O)n1 [Compound 3, (6-((5-Chloro-2-((4-(7-(dimethylamino)-2-azaspiro[3.5]nonan-2-yl)-2-methoxy-5-methylphenyl)amino)pyrimidin-4-yl)amino)-2,3-dimethylphenyl)dimethylphosphine oxide] | 21

Results, then the compound that gave them:

IC50 [nM] | SMILES
0.84 | COc1cc(N2CC3(CCN(C)CC3)C2)c(Cl)cc1Nc1ncc(Cl)c(Nc2ccc(C)c(C)c2P(C)(C)=O)n1 [Compound 34]
0.85 | COc1cc(N2CC3(CCN(C)CC3)C2)c(Cl)cc1Nc1ncc(Cl)c(Nc2cc(C)c(C)cc2P(C)(C)=O)n1 [Compound 40]
0.89 | COc1cc(N2CC3(CCN(C4CC4)CC3)C2)c(Cl)cc1Nc1ncc(Cl)c(Nc2cc(C)c(C)cc2P(C)(C)=O)n1 [Compound 41]
6.78 | CCc1cc(Nc2ncc(Cl)c(Nc3ccc(C)c(C)c3P(C)(C)=O)n2)c(OC)cc1N1CCC2(CC1)CN(C(C)=O)C2 [Compound 30, 1-(7-(4-((5-chloro-4-((2-(dimethylphosphoryl)-3,4-dimethylphenyl)amino)pyrimidin-2-yl)amino)-2-ethyl-5-methoxyphenyl)-2,7-diazaspiro[3.5]nonan-2-yl)ethan-1-one]
0.73 | CCN1CCC2(CC1)CN(c1cc(OC)c(Nc3ncc(Cl)c(Nc4ccc(C)c(C)c4P(C)(C)=O)n3)cc1C)C2 [Compound 33]
4.19 | CCc1cc(Nc2ncc(Cl)c(Nc3ccc(C)c(C)c3P(C)(C)=O)n2)c(OC)cc1N1CCC2(CC1)CN(COC)C2 [Compound 31]
3.8 | CCc1cc(Nc2ncc(Cl)c(Nc3cc(C)c(C)cc3P(C)(C)=O)n2)c(OC)cc1N1CCC(N2CC(N(C)C)C2)CC1 [Compound 15, (2-((5-chloro-2-((4-(4-(3-(dimethylamino)azetidin-1-yl)piperidine-1-yl)-5-ethyl-2-methoxyphenyl)amino)pyrimidin-4-yl)amino)-4,5-dimethylphenyl)dimethylphosphine oxide]
0.78 | CCc1cc(Nc2ncc(Cl)c(Nc3cccc(Cl)c3P(C)(C)=O)n2)c(OC)cc1N1CC2(CCN(CC)CC2)C1 [Compound 47]
5 | COc1cc(N2CCC(N3CCN(C)CC3)CC2)c(C)cc1Nc1ncc(Cl)c(Nc2ccc(C)c(C)c2P(C)(C)=O)n1 [BD-2, (6-((5-Chloro-2-((2-methoxy-5-methyl-4-(4-(4-methylpiperazin-1-yl)piperidin-1-yl)phenyl)amino)pyrimidin-4-yl)amino)-2,3-dimethylphenyl)dimethylphosphine oxide]
7 | COc1cc(N2CCC3(CC2)CC(N(C)C)C3)c(C)cc1Nc1ncc(Cl)c(Nc2cc(C)c(C)cc2P(C)(C)=O)n1 [Compound 9, (2-((5-Chloro-2-((4-(2-(dimethylamino)-7-azaspiro[3.5]nonan-7-yl)-2-methoxy-5-methylphenyl)amino)pyrimidin-4-yl)amino)-4,5-dimethylphenyl)dimethylphosphine oxide]
0.81 | CCc1cc(Nc2ncc(Cl)c(Nc3ccc(C)c(C)c3P(C)(C)=O)n2)c(OC)cc1N1CC2(CCN(CC)CC2)C1 [Compound 27]
5 | CCc1cc(Nc2ncc(Cl)c(Nc3cc(C)c(C)cc3P(C)(C)=O)n2)c(OC)cc1N1CCC(N2CCN(C)CC2)CC1 [Compound 11, (2-((5-chloro-2-((5-ethyl-2-methoxy-4-(4-(4-methylpiperazin-1-yl)piperidin-1-yl)phenyl)amino)pyrimidin-4-yl)amino)-4,5-dimethylphenyl)dimethylphosphine oxide]
0.68 | CCN1CCC2(CC1)CN(c1cc(OC)c(Nc3ncc(Cl)c(Nc4ccc(C)c(C)c4P(C)(C)=O)n3)cc1Cl)C2 [Compound 35]
0.96 | CCc1cc(Nc2ncc(Cl)c(Nc3cc(Cl)c(Cl)cc3P(C)(C)=O)n2)c(OC)cc1N1CC2(CCN(C)CC2)C1 [Compound 36]
